Values after ≈ are worked out from the molar mass of the structure shown. Read-outs that look alike come from different tables or passages of the source.
Columns and labels:
Assay type in all cases: cell-based
BT-474 = assay: MTT dye reduction cell viability assay, BT-474 breast cancer cell line; settings: Homo sapiens, BT-474, MTT 120 h, read-out: Miyabeacin IC50
Protocol: (§1) The activity of miyabeacin was tested against a range of cancer cell lines including those in neuroblastoma and breast, oesophageal and ovarian cancers (Table 10).
(§2) The MYCN-amplified neuroblastoma cell line UKF-NB-3 was established from a stage 4 neuroblastoma patient (Kotchetkov et al., 2005). Also tested was the vincristine-resistant UKF-NB-3 sub-line UKF-NB-3^rVCR (Rothwell et al., 2010) (adapted to grow in the presence of vincristine 10 ng/mL). At a concentration of 20 μg/mL of miyabeacin, the cell viability, relative to non-treated cells, after 120 hours was 0% for UKF-NB-3 and 4.22±2.89% for the vincristine resistant UKF-NB-3^rVCR line. The oesophageal cancer cell line COLO-680N was obtained from ATCC (Manassas, Va., USA) and the ovarian cancer cell line COLO-704 from DSMZ (Braunschweig, Germany). All cell lines were propagated in Iscove's modified Dulbecco's medium (IMDM) supplemented with 10% FCS, 100 IU/ml penicillin and […] streptomycin at 37° C. […] Cell viability was determined by the 3-(4,5-dimethylthiazol-2-yl)-2,5-diphenyltetrazolium bromide (MTT) dye reduction assay after 120 h incubation as described previously (Michaelis et al., 2015). […] Plates were then read at 600 nm. The relative viability was determined as the relative reduction of the optical density relative to an untreated cell control (=100%).

COLO-680N = assay: MTT dye reduction cell viability assay, COLO-680N oesophageal cancer cell line; settings: Homo sapiens
Protocol: as §1
(§3) The MYCN-amplified neuroblastoma cell line UKF-NB-3 was established from a stage 4 neuroblastoma patient (Kotchetkov et al., 2005). Also tested was the vincristine-resistant UKF-NB-3 sub-line UKF-NB-3^rVCR (Rothwell et al., 2010) (adapted to grow in the presence of vincristine 10 ng/mL). At a concentration of 20 μg/mL of miyabeacin, the cell viability, relative to non-treated cells, after 120 hours was 0% for UKF-NB-3 and 4.22±2.89% for the vincristine resistant UKF-NB-3^rVCR line. The oesophageal cancer cell line COLO-680N was obtained from ATCC (Manassas, Va., USA) and the ovarian cancer cell line COLO-704 from DSMZ (Braunschweig, Germany). All cell lines were propagated in Iscove's modified Dulbecco's medium (IMDM) supplemented with 10% FCS, 100 IU/ml penicillin and […] streptomycin at 37° C. Cells were routinely tested for mycoplasma contamination and authenticated by short tandem repeat profiling. Cell viability was determined by the 3-(4,5-dimethylthiazol-2-yl)-2,5-diphenyltetrazolium bromide (MTT) dye reduction assay after 120 h incubation as described previously (Michaelis et al., 2015). Briefly, 5000 cells (suspended in 100 μL IMDM supplemented with 10% FCS, 100 IU/ml penicillin and […] streptomycin) were incubated in 96-well plates at 37° C. and 5% CO2 in the absence or presence of varying compound concentrations for 120 h. Then, 25 μL of MTT solution ([…] dissolved in PBS) were added for 4 h. This was followed by the addition of […] of 20% sodium dodecyl sulphate (50:50 purified water/DMF) solution adjusted to pH 4.7 for an additional 4 h in order to lyse cells and dissolve formazan precipitates. Plates were then read at 600 nm. The relative viability was determined as the relative reduction of the optical density relative to an untreated cell control (=100%).

COLO-704 = assay: MTT dye reduction cell viability assay, COLO-704 ovarian cancer cell line
Protocol: as §1, §3

EFO-21 = assay: MTT dye reduction cell viability assay, EFO-21 ovarian cancer cell line; settings: Homo sapiens, EFO-21, MTT 120 h, read-out: Miyabeacin IC50
Protocol: as §1, §2

MCF-7 = assay: MTT dye reduction cell viability assay, MCF-7 breast cancer cell line; settings: Homo sapiens, MCF7, MCF-7, MTT 120 h, read-out: Miyabeacin IC50
Protocol: as §1, §2

UKF-NB-3 = assay: MTT dye reduction cell viability assay, UKF-NB-3 neuroblastoma cell line
Protocol: as §1, §3

UKF-NB-3^rVCR = assay: MTT dye reduction cell viability assay, vincristine-resistant UKF-NB-3 sub-line; settings: 20 μg/mL, after 120 hours, vincristine resistant UKF-NB-3^rVCR; read-out: cell viability, relative to non-treated cells
Protocol: (§4) The MYCN-amplified neuroblastoma cell line UKF-NB-3 was established from a stage 4 neuroblastoma patient (Kotchetkov et al., 2005). Also tested was the vincristine-resistant UKF-NB-3 sub-line UKF-NB-3^rVCR (Rothwell et al., 2010) (adapted to grow in the presence of vincristine 10 ng/mL). At a concentration of 20 μg/mL of miyabeacin, the cell viability, relative to non-treated cells, after 120 hours was 0% for UKF-NB-3 and 4.22±2.89% for the vincristine resistant UKF-NB-3^rVCR line. The oesophageal cancer cell line COLO-680N was obtained from ATCC (Manassas, Va., USA) and the ovarian cancer cell line COLO-704 from DSMZ (Braunschweig, Germany). All cell lines were propagated in Iscove's modified Dulbecco's medium (IMDM) supplemented with 10% FCS, 100 IU/ml penicillin and […] streptomycin at 37° C. Cells were routinely tested for mycoplasma contamination and authenticated by short tandem repeat profiling. Cell viability was determined by the 3-(4,5-dimethylthiazol-2-yl)-2,5-diphenyltetrazolium bromide (MTT) dye reduction assay after 120 h incubation as described previously (Michaelis et al., 2015). […] Plates were then read at 600 nm. The relative viability was determined as the relative reduction of the optical density relative to an untreated cell control (=100%).

[1] = system: UKF-NB-3, COLO-680N and COLO-704; assay: Replicated IC50 determination (MTT) on three selected lines; settings: range of means over UKF-NB-3, COLO-680N and COLO-704
Protocol: as §4

SMILES: O=C(OCc1ccccc1O[C@H]1OC(CO)[C@H](O)C(O)C1O)[C@@]1(O)C(=O)C2C=CC1C1C2C=CC(=O)[C@]1(O)C(=O)OCc1ccccc1O[C@H]1OC(CO)[C@H](O)C(O)C1O (stereo partly drawn) [miyabeacin]
- IC50 (BT-474): 27 µg/mL (≈ 32 µM)
- IC50 (COLO-680N; expt 1, read-out: miyabeacin IC50 concentration expt 1): 5.08 µg/mL
- IC50 (COLO-680N; expt 2, read-out: miyabeacin IC50 concentration expt 2): 15.1 µg/mL
- IC50 (COLO-680N; expt 3, read-out: miyabeacin IC50 concentration expt 3): 51.5 µg/mL
- IC50 (COLO-680N; mean of 3 expts, read-out: IC50 mean): 28.3 µM
- IC50 (COLO-680N; mean of 3 expts, read-out: miyabeacin IC50 concentration mean): 23.9 µg/mL
- IC50 (COLO-680N; oesophageal, MTT 120 h, read-out: Miyabeacin IC50): 5.08 µg/mL
- IC50 (COLO-704; COLO-704, expt 1, read-out: miyabeacin IC50 concentration expt 1): 20.2 µg/mL
- IC50 (COLO-704; COLO-704, expt 2, read-out: miyabeacin IC50 concentration expt 2): 32.4 µg/mL
- IC50 (COLO-704; COLO-704, expt 3, read-out: miyabeacin IC50 concentration expt 3): 50.8 µg/mL
- IC50 (COLO-704; COLO-704, mean of 3 expts, read-out: IC50 mean): 40.2 µM
- IC50 (COLO-704; COLO-704, mean of 3 expts, read-out: miyabeacin IC50 concentration mean): 34.5 µg/mL
- IC50 (COLO-704; ovarian, COLO-704, MTT 120 h, read-out: Miyabeacin IC50): 20.2 µg/mL
- IC50 (EFO-21): 12.7 µg/mL (≈ 15 µM)
- IC50 (MCF-7): 2.19 µg/mL (≈ 2.59 µM)
- viability at 20 µg/mL (UKF-NB-3; 20 μg/mL, after 120 hours, UKF-NB-3, read-out: cell viability, relative to non-treated cells): 0%
- IC50 (UKF-NB-3; UKF-NB-3, expt 1, read-out: miyabeacin IC50 concentration expt 1): 7.12 µg/mL
- IC50 (UKF-NB-3; UKF-NB-3, expt 2, read-out: miyabeacin IC50 concentration expt 2): 21 µg/mL
- IC50 (UKF-NB-3; UKF-NB-3, expt 3, read-out: miyabeacin IC50 concentration expt 3): 15.3 µg/mL
- IC50 (UKF-NB-3; UKF-NB-3, mean of 3 expts, read-out: IC50 mean): 17.2 µM
- IC50 (UKF-NB-3; UKF-NB-3, mean of 3 expts, read-out: miyabeacin IC50 concentration mean): 14.5 µg/mL
- IC50 (UKF-NB-3; neuroblastoma, UKF-NB-3, MTT 120 h, read-out: Miyabeacin IC50): 7.12 µg/mL
- viability at 20 µg/mL (UKF-NB-3^rVCR): 4.22 ± 2.89%
- IC50 [1]: 17.2 to 40.2 µM
